One test concerns mouse cortical neurons. The test can be described thus: NADPH/NADP+ levels in neurons (NADP/NADPH-Glo). As to conditions: CI-inhibited neurons. In kind it is cell-based. On the procedure:
Primary cultures of C57BL/6 mouse cortical neurons were prepared from embryos between embryonic days 16.5 and 17.5 and seeded onto pre-treated plates coated with Poly-L-lysine hydrobromide (500 µg/ml). We used Neurobasal medium without D-glucose and sodium pyruvate (ThermoFisher) to modulate D-glucose levels, depending on the experiment (2.5 mM, 5 mM, or 25 mM).
In standard experiments, we utilized Neurobasal medium with 25 mM D-glucose, 1 mM sodium pyruvate (ThermoFisher), B27 plus supplement (GIBCO), GlutaMax I 100X (GIBCO), and 1% penicillin/streptomycin (P/S). Starting from day 6 in vitro (DIV6), half of the medium was replaced every 3-4 days, omitting GlutaMax I.
(§1) The NADP/NADP-Glo™ Assay (Promega) was employed to assess the NADP/NADPH ratio in cultured cells, following the manufacturer's instructions (Technical Bulletin Number TM400). This bioluminescent assay can detect both total oxidized and reduced nicotinamide adenine dinucleotide phosphates (NADP+ and NADPH) and determine their ratio.
Cells were cultured in 24-well plates (Falcon®) at varying concentrations depending on the cell type and the specific experiment. After removing the media, we added 100 µl of PBS 1X per well and lysed the cells by introducing 100 µl of a base solution with 1% DTAB (1:1 ratio). […] Luminescence was measured using the CLARIOstar Plus plate reader from BMG LABTECH.

For another test, the system named is astrocytes. The test can be described thus: NADPH/NADP+ levels in astrocytes. It is filed as cell-based, mouse. On the procedure: Primary cultures of C57BL/6 mouse cortical astrocytes were derived from postnatal day 2-3 pups. They were plated on pre-treated dishes coated with Poly-L-lysine (100 µg/ml) and cultured in DMEM/F-12 (ThermoFisher) supplemented with 15% FBS and 1% penicillin/streptomycin (P/S). After 24 hours of plating, the medium was switched to 10% FBS.
as §1
Cells were cultured in 24-well plates (Falcon®) at varying concentrations depending on the cell type and the specific experiment. After removing the media, we added 100 µl of PBS 1X per well and lysed the cells by introducing 100 µl of a base solution with 1% DTAB (1:1 ratio). To adapt the volumes for a 96-well plate, we divided the 200 µl total into two parts, allocating 50 µl for measuring NADP+ and 50 µl for NADPH in separate positions on the plate, allowing us to measure both NADP and NADPH levels. The assay was then carried out as per the standard protocol. Luminescence was measured using the CLARIOstar Plus plate reader from BMG LABTECH.

In a further test the test system is 143B cell lines. In words: Cell viability of CRISPR knock-out 143B cell lines treated with ETC inhibitors. It is filed as cell-based. On the procedure: All cell lines, 143b, HeLa, U2OS, and transmitochondrial cybrids carrying mutation in CI (ND2), CIII (CytB) or CIV (Cox2) subunits, were maintained in DMEM high glucose (HyClone), 10% FBS and 1% P/S at 37°C with 5% CO2. Mitochondrial mutant cells were cultured with supplementation of 50 µg/mL uridine. The selected cancer cell lines with different levels of malic enzyme (HCC15, KYSE410, CAKI1, J82, MDAMB453, Colo320, NCIH1703) were obtained from the DSMZ-German Collection of Microorganisms and Cell Cultures GmbH and cultured in the same DMEM 10% FBS medium. OCI-Lys3 and RCH-ACV cell lines (cells in suspension), were obtained from the same repository and cultured in RPMI 10% FBS medium. Transfections for gain- and loss-of-function studies were performed according to the manufacturer's instructions using the polyfect reagent (Qiagen, 301107). For cell number and proliferation experiments, cells were seeded in 12 or 6-well plates and allowed to proliferate for the specified durations. Subsequently, cells were trypsinized and quantified using a hemocytometer (NanoEnTek, DHC-N01). Cell viability was quantified using propidium iodide (PI; 50 µg/ml) staining.
Generation of knockout cell lines using CRISPR-Cas9 technology was performed with the lenti-CRISPR v2 vector (Addgene #52961). Guide sequences are: • sgGFPT1, 5-[…]-3 (SEQ ID NO: 1); • sgG6PD, 5-[…]-3 (SEQ ID NO: 2); • sgPHGDH, 5-[…]-3 (SEQ ID NO: 3); • sgMPC1, 5-[…]-3 (SEQ ID NO: 4) • sgPC, 5-CAGGCCCGGAACACACGGA-3 (SEQ ID NO: 5); • sgACLY, 5-[…]-3 (SEQ ID NO: 6); • sgME1, 5-[…]-3 (SEQ ID NO: 7).
To investigate glucose-dependent alternative metabolic pathways that become essential upon ETC inhibition, we generated through CRISPR/Cas9 technology, knock-out (KO) 143B cell lines for each of the following rate-limiting enzymes and transporters. We selected glucose 6 phosphate dehydrogenase (G6PD) for the PPP, Glutamine-Fructose-6-Phosphate Transaminase 1 (GFPT1) for the hexosamine pathway, Phosphoglycerate Dehydrogenase (PHGDH) for the serine biosynthesis pathway and Mitochondrial Pyruvate Carrier 1 (MPC1) to prevent pyruvate entry into the mitochondria. These KO and Control cells were treated with two specific ETC inhibitors (Piericidin A that targets Complex I and Antimycin A that targets Complex III) and cell viability was assessed after 3 days of treatment. […] We took advantage of the fruit fly Drosophila melanogaster model, as it is cost- and time-efficient and recapitulate a wide range of phenotypes seen in patients with metabolic and mitochondrial disorders. We obtained flies carrying mutations in Zw and Pgd genes (named: Pgd^39 Zw^lo2a), corresponding to human orthologs G6PD and 6PGD respectively. […]

In the case of `CC=C(C)C(O)C(C)C=C(C)C=CCC(C)=CCc1nc(OC)c(OC)c(O)c1C` (stereo not drawn) [Piericidin, Piericidin A], the NADPH levels result was “marked drop” with mouse cortical neurons (100 nM, 24 h) and “did not cause any alteration” with astrocytes (astrocytes, 100 nM, 24 h). Moreover, the “NADPH/NADP+ levels” value in the test with mouse cortical neurons (low glucose (2,5 mM)) was “rapid decline”. Also, in the test on astrocytes (PC and ME1 knockdown astrocytes, 100nM, 96 h), the “levels of NADPH” value is “reduced”. Besides, the cell viability entry with 143B cell lines (G6PD KO 143B cells, after 3 days of treatment) is on record as “sensitive”. Also, the survival or proliferation result in the test on 143B cell lines (KO cells for GFPT1, PHGDH or MPC1, after 3 days of treatment) was “no differences”.

The values above are taken from patent EP4653001A1, “TREATMENT, DIAGNOSIS AND/OR PROGNOSIS OF MITOCHONDRIAL DISEASES” (Universidad Autónoma de Madrid, priority 2024, dated 2025).
